Values quoted from earlier work as cited in publication PMC9668914, “Understanding VPAC receptor family peptide binding and selectivity” (Nature Communications, 2022).

Target: T1, PAC1R (Homo sapiens, UniProt P41586)
T1 construct: An HA signal peptide was inserted in place of the native signal peptide of the receptors; HA signal peptide (replaces the native signal peptide) (N); 3C protease cleavage sites (between FLAG and receptor, and between receptor and His) (internal); expressed in transfected cells; host or cells: COS-7 (transient, PEI)
T1 sequence (P41586 21-468): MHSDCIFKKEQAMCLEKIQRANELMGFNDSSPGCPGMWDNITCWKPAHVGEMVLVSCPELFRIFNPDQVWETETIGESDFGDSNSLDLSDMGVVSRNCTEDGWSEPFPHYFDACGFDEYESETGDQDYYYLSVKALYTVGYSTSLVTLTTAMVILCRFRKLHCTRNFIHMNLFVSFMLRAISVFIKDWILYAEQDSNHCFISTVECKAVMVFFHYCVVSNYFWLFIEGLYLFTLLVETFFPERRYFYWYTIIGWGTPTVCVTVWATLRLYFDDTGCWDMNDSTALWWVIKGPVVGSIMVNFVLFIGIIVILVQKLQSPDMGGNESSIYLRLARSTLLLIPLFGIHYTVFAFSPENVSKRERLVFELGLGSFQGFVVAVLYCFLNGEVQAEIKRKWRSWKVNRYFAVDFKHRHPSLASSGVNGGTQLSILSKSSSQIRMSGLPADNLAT
Set-up: method as in PMID 8995389
Details: cited from earlier work

## maxadilan
  agonist selectivity: PAC1R-selective agonist
